Measurements: patent publication US8802597B2, “Herbicidal pyrimidines” (E I du Pont de Nemours and Company, priority 2003, dated 2014)

What was measured:
Assay in all cases: Test C pre/postemergence
Type in all cases: in vivo
[1] = system: cocklebur (Xanthium strumarium); settings: Preemergence
Outline: (§1)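 Percent control is a visual rating (0 none, 100 complete) taken against untreated plants after 12 to 14 days of greenhouse growth. Applications were made preemergence to seeded pots and postemergence to plants at the 1- to 4-leaf stage, in a non-phytotoxic surfactant-containing solvent.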

[2] = system: kochia (Kochia scoparia); settings: Preemergence, scale 0 to 100
Outline: as §1

[3] = system: common ragweed (Ambrosia elatior); settings: Preemergence
Outline: as §1

[4] = system: johnsongrass (Sorghum halepense); settings: Preemergence
Outline: as §1

[5] = system: morningglory (Ipomoea coccinea); settings: Preemergence
Outline: as §1

[6] = system: woolly cupgrass (Eriochloa villosa); settings: Preemergence
Outline: as §1

[7] = system: Surinam grass (Brachiaria decumbens); settings: Preemergence
Outline: as §1

[8] = system: corn (Zea mays); settings: Preemergence
Outline: as §1

[9] = system: bermudagrass (Cynodon dactylon); settings: Preemergence
Outline: as §1

[10] = system: pigweed (Amaranthus retroflexus); settings: Preemergence
Outline: as §1

[11] = system: common (oilseed) sunflower (Helianthus annuus); settings: Preemergence
Outline: as §1

[12] = system: eastern black nightshade (Solanum ptycanthum); settings: Preemergence
Outline: as §1

[13] = 62 g ai/ha, scale 0 to 100, 0 no effect, 100 complete control

For `CCOC(=O)Cc1nc(C2CC2)nc(N=CN(C)C)c1Br` [Compound 33], the “Plant response rating, Cocklebur” value [1, 13] was 0, the “Plant response rating, Cocklebur” value ([1]; 125 g ai/ha, scale 0 to 100) was 0 and the “Plant response rating, Cocklebur” value ([1]; 250 g ai/ha, scale 0 to 100) was 90. The “Plant response rating, Cocklebur” value ([1]; 500 g ai/ha, scale 0 to 100) was 95, the “Plant response rating, Kochia” value ([2]; 250 g ai/ha) was 50 and the “Plant response rating, Kochia” value ([2]; 500 g ai/ha) was 50. The “Plant response rating, Ragweed” value [3, 13] was 0, the “Plant response rating, Ragweed” value ([3]; 125 g ai/ha, scale 0 to 100) was 20 and the “Plant response rating, Ragweed” value ([3]; 250 g ai/ha, scale 0 to 100) was 70. The “Plant response rating, Ragweed” value ([3]; 500 g ai/ha, scale 0 to 100) was 90, the “Plant response rating, Johnsongrass” value [4, 13] was 0 and the “Plant response rating, Johnsongrass” value ([4]; 125 g ai/ha, scale 0 to 100) was 5. For the same compound, the “Plant response rating, Johnsongrass” value ([4]; 250 g ai/ha, scale 0 to 100) was 10, the “Plant response rating, Johnsongrass” value ([4]; 500 g ai/ha, scale 0 to 100) was 40 and the “Plant response rating, Morningglory” value [5, 13] was 0. The “Plant response rating, Morningglory” value ([5]; 125 g ai/ha, scale 0 to 100) was 85, the “Plant response rating, Morningglory” value ([5]; 250 g ai/ha, scale 0 to 100) was 90 and the “Plant response rating, Morningglory” value ([5]; 500 g ai/ha, scale 0 to 100) was 95. The “Plant response rating, Cupgrass, Woolly” value [6, 13] was 0, the “Plant response rating, Cupgrass, Woolly” value ([6]; 125 g ai/ha, scale 0 to 100) was 0 and the “Plant response rating, Cupgrass, Woolly” value ([6]; 250 g ai/ha, scale 0 to 100) was 0. The “Plant response rating, Cupgrass, Woolly” value ([6]; 500 g ai/ha, scale 0 to 100) was 0, the “Plant response rating, Surinam Grass” value [7, 13] was 0 and the “Plant response rating, Surinam Grass” value ([7]; 125 g ai/ha, scale 0 to 100) was 0. The “Plant response rating, Surinam Grass” value ([7]; 250 g ai/ha, scale 0 to 100) was 0, the “Plant response rating, Surinam Grass” value ([7]; 500 g ai/ha, scale 0 to 100) was 10 and the “Plant response rating, Corn” value [8, 13] was 0. For the same compound, the “Plant response rating, Corn” value ([8]; 125 g ai/ha, scale 0 to 100) was 0, the “Plant response rating, Corn” value ([8]; 250 g ai/ha, scale 0 to 100) was 30 and the “Plant response rating, Corn” value ([8]; 500 g ai/ha, scale 0 to 100) was 40. The “Plant response rating, Bermudagrass” value [9, 13] was 0, the “Plant response rating, Bermudagrass” value ([9]; 125 g ai/ha, scale 0 to 100) was 0 and the “Plant response rating, Bermudagrass” value ([9]; 250 g ai/ha, scale 0 to 100) was 0. For the same compound, the “Plant response rating, Bermudagrass” value ([9]; 500 g ai/ha, scale 0 to 100) was 0, the “Plant response rating, Pigweed” value [10, 13] was 85 and the “Plant response rating, Pigweed” value ([10]; 125 g ai/ha, scale 0 to 100) was 90. The “Plant response rating, Pigweed” value ([10]; 250 g ai/ha, scale 0 to 100) was 90, the “Plant response rating, Pigweed” value ([10]; 500 g ai/ha, scale 0 to 100) was 90 and the “Plant response rating, Sunflower” value [11, 13] was 0. For the same compound, the “Plant response rating, Sunflower” value ([11]; 125 g ai/ha, scale 0 to 100) was 70, the “Plant response rating, Sunflower” value ([11]; 250 g ai/ha, scale 0 to 100) was 80 and the “Plant response rating, Sunflower” value ([11]; 500 g ai/ha, scale 0 to 100) was 90. For the same compound, the “Plant response rating, Nightshade” value [12, 13] was 0, the “Plant response rating, Nightshade” value ([12]; 125 g ai/ha, scale 0 to 100) was 50 and the “Plant response rating, Nightshade” value ([12]; 250 g ai/ha, scale 0 to 100) was 95. The “Plant response rating, Nightshade” value ([12]; 500 g ai/ha, scale 0 to 100) was 100.
